Experimental findings from ChEMBL document CHEMBL4340566, “Development of indazole mineralocorticoid receptor antagonists and investigation into their selective late-stage functionalization” (Bioorg Med Chem Lett, 2019) are described below.

The nature of series [1]: Half-life in Wistar Han rat at 1 mg/kg, iv or 2 mg/kg, po. As to conditions: in vivo; for half-life: Wistar Han. Format: ADME, organism-based.
The target in series [2] is T1, Glucocorticoid receptor (Homo sapiens, UniProt P04150).
T1 sequence (P04150 whole entry): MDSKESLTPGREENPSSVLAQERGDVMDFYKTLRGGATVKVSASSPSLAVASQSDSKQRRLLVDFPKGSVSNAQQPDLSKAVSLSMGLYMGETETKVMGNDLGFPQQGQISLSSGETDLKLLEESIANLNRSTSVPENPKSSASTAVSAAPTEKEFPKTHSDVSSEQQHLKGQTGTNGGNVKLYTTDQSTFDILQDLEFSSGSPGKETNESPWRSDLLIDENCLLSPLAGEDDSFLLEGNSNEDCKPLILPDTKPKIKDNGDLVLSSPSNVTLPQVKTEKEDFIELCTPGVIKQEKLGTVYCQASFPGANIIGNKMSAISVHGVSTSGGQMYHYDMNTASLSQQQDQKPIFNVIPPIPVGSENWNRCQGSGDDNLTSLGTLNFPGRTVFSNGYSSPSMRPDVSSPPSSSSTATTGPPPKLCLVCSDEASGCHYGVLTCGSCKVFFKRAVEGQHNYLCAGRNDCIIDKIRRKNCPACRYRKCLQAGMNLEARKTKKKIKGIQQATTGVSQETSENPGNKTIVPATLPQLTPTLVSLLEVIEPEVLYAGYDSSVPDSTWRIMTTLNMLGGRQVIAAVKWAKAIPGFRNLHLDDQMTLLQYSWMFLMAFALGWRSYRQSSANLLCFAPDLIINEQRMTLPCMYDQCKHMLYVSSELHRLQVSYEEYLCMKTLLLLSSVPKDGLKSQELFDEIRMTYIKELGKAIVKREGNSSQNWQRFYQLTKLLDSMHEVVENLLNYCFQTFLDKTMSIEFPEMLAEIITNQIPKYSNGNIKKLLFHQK
Put plainly: Binding affinity to glucocorticoid receptor (unknown origin) by gel filtration assay. For orientation: SEC sorts molecules by how far they enter the pores of the column.

The nature of series [3]: Oral bioavailability in Wistar Han rat at 2 mg/kg. In kind it is ADME, organism-based. As to conditions: in vivo.
Series [4] deals with T2, Mineralocorticoid receptor (Homo sapiens, UniProt P08235).
T2 sequence (P08235 whole entry): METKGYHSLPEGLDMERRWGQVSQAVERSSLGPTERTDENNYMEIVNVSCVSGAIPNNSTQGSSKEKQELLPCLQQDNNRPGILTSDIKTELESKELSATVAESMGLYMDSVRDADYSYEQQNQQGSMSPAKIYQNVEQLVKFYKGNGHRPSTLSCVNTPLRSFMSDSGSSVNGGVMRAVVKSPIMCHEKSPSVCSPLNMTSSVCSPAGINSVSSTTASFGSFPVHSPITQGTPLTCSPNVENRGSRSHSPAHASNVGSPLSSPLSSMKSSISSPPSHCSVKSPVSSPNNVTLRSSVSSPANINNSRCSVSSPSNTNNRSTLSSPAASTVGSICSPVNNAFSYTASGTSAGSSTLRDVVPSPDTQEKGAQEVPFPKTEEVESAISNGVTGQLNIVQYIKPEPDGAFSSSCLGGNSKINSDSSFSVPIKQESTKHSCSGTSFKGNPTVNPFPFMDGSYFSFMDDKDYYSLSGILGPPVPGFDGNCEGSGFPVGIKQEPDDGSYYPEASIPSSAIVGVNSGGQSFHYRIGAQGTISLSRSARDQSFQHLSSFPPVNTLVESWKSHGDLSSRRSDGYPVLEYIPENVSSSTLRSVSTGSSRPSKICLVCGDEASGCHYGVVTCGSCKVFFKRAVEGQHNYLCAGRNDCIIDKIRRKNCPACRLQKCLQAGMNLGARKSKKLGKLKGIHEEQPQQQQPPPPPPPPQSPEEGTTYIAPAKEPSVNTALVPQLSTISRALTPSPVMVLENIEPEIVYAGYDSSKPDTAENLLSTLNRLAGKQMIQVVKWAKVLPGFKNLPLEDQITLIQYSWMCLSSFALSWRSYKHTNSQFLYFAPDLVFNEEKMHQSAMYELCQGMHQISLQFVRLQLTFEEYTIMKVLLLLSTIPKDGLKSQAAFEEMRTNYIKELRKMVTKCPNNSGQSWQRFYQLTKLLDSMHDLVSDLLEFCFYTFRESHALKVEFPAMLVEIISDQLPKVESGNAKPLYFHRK
The experiment in a line: Antagonist activity at mineralocorticoid receptor (unknown origin).

The species named for series [5] is Homo sapiens. Put plainly: Selectivity ratio of IC50 for glucocorticoid receptor (unknown origin) to IC50 for mineralocorticoid receptor (unknown origin).
Series [6] is described as follows: Drug metabolism in human liver microsomes assessed as oxidation of electron-rich indole core at 10 uM preincubated for 1 hr followed by NADPH addition by HRMS/MS fragmentation analysis. Format: ADME, Microsome. Background: Microsomes from liver hold many membrane-bound enzymes, among them those of drug oxidation.
The nature of series [7]: Drug metabolism in rat liver microsomes assessed as oxidation of electron-rich indole core at 10 uM preincubated for 1 hr followed by NADPH addition by HRMS/MS fragmentation analysis. In kind it is ADME, Microsome.
Series [8] can be described thus: Photostability of the compound under UV-irradiation. Format: physicochemical.
A short description of series [9]: Metabolic stability in human liver microsomes assessed as parent compound remaining measured at 0.5 hrs. As to conditions: read-out: Stability. Format: ADME, Microsome.
Series [10] can be described thus: Oral bioavailability in Wistar Han rat at 10 mg/kg. The conditions noted are these: in vivo. In kind it is ADME, organism-based.
Series [11] concerns the target T2, Mineralocorticoid receptor. Put plainly: Binding affinity to mineralocorticoid receptor (unknown origin).
Series [12] can be described thus: Half-life in Wistar Han rat at 2 mg/kg, iv or 10 mg/kg, po. The conditions noted are these: in vivo. Format: ADME, organism-based.
The nature of series [13]: Clearance in Wistar Han rat at 2 mg/kg, iv or 10 mg/kg, po. In kind it is ADME, organism-based. As to conditions: in vivo.
The nature of series [14]: Half-life in Sprague-Dawley rat at 1 mg/kg, iv or 2 mg/kg, po. The conditions noted are these: in vivo. In kind it is ADME, organism-based.
A short description of series [15]: Clearance in Sprague-Dawley rat at 1 mg/kg, iv or 2 mg/kg, po. As to conditions: in vivo. In kind it is ADME, organism-based.
Series [16] in a line: Clearance in Wistar Han rat at 1 mg/kg, iv or 2 mg/kg, po. Format: ADME, organism-based. The conditions noted are these: in vivo.
A short description of series [17]: Oral bioavailability in Sprague-Dawley rat at 2 mg/kg. In kind it is ADME, organism-based. As to conditions: in vivo.
Series [18] is described as follows: Half-life in Sprague-Dawley rat at 2 mg/kg, iv or 10 mg/kg, po. Format: ADME, organism-based. The conditions noted are these: in vivo.
Series [19] is described as follows: Clearance in Sprague-Dawley rat at 2 mg/kg, iv or 10 mg/kg, po. Format: ADME, organism-based. As to conditions: in vivo.
Series [20] in a line: Oral bioavailability in Sprague-Dawley rat at 10 mg/kg. Format: ADME, organism-based. As to conditions: in vivo.

SMILES strings stand for the structures.

Broadly, the IC50 is the concentration at which inhibition is half-maximal. High values mean weaker potency in that assay, low ones greater potency in that assay. Molecule `CC[C@@](c1ccc(C(F)(F)F)cc1)(C(C)O)n1ncc2c(NS(C)(=O)=O)cc(F)cc21` (single isomer, unassigned; diastereomer A) [listing 1 of 2 here] returned a t1/2 in series [1] of 1.8 h. For the same molecule, the IC50 in series [2] was determined as 10200 nM; in series [4], 22 nM. In series [3], this molecule showed an F of 36%.
On to `CC[C@@](c1ccc(C(F)(F)F)cc1)(C(C)O)n1ncc2c(NS(C)(=O)=O)cc(F)cc21` (single isomer, unassigned; diastereomer B) [listing 1 of 2 here], for which the Ratio IC50 in [5] turned out to be 19.
Regarding `CC[C@@](c1ccc(C(F)(F)F)cc1)(C(C)O)n1ncc2c(NS(C)(=O)=O)cc(F)cc21` (single isomer, unassigned; diastereomer A) [listing 2 of 2 here], in [5], the Ratio IC50 was 640.
In turn, `CCC(CC)(c1ccc(Cl)cc1)c1nnc2c(NS(C)(=O)=O)cccn12` yielded an IC50 in series [4] of 5940 nM.
As for `CC[C@](C(=O)NC)(c1ccc(Cl)cc1)n1ccc2c(NS(C)(=O)=O)cccc21`, the Drug metabolism result in series [6] and in series [7] was “Metabolite_Detected” throughout. Also, the Stability entry in [8] is given as “Unstable”.
For the molecule `CC[C@@](c1ccc(C(F)(F)F)cc1)(C(C)O)n1ncc2c(NS(C)(=O)=O)cc(F)cc21` (single isomer, unassigned; diastereomer B) [listing 2 of 2 here], in series [1], the t1/2 amounted to 5.2 h. Further, the remaining at 0.5 h in series [9] is 84%. Further, the results for the IC50 in series [2] and in series [4] were 4020 nM and 41 nM, respectively. Also, the F in [3] stood at 92%.
As usually defined, the bioavailability is dose-corrected exposure relative to a reference, in per cent. A high value points to much systemic uptake. Usually half-life stands for how long it takes for the measured level to halve. Low values mean fast loss, high ones slow loss. `CC[C@](CO)(c1ccc(Cl)cc1)n1ccc2c(NS(C)(=O)=O)cc(F)cc21` showed a bioavailability in series [10] of 30%. Further, the results for the IC50 in [2], in series [11] and in series [4] were 111 nM, 32 nM and 116 nM, respectively. In addition, the half-life in series [12] is 1.6 h. For the same molecule, the Ratio IC50 in series [5] amounted to 3.5. For the same molecule, the clearance in [13] was found to be 34 mL/min/kg.
For the molecule `CC[C@@](c1ccc(C(F)(F)F)cc1)(C(C)O)n1ncc2c(NS(C)(=O)=O)cccc21` (some centres not stated), the half-life in series [1] and in series [14] was 5.7 h in each case. Further, in series [9], the remaining at 0.5 h was 52%. The clearance in series [15] and in [16] was 14 mL/min/kg in each case. Also, the 50% inhibitory concentration (IC50) in series [2] came out at 1640 nM; in series [4], 20 nM. In addition, the bioavailability in [17] and in series [3] (Wistar Han) was 92% throughout. The Ratio IC50 in series [5] was determined as 1000.
Turning to `CCC(CC)(c1ccc(Cl)cc1)c1cnc2c(NS(C)(=O)=O)cccn12`, in [4], inhibition was half-maximal at 7690 nM (IC50).
In turn, `CC[C@](CO)(c1ccc(Cl)cc1)n1ccc2c(NS(C)(=O)=O)cccc21` had a half-life in series [1] of 1.5 h. Also, the clearance in series [16] stood at 41 mL/min/kg.
Regarding `CCC(CC)(c1ccc(Cl)cc1)n1ccc2c(NS(C)(=O)=O)cccc21`, in [4], the IC50 stood at 39 nM. This counts as double-digit nanomolar.
Take `CCC(CO)(c1ccc(Cl)cc1)n1ccc2c(NS(C)(=O)=O)cc(Br)cc21` (racemic): the figures for the IC50 in series [2] and in series [4] were 202 nM and 567 nM, respectively.
The like results for `CCC(CO)(c1ccc(Cl)cc1)n1ccc2c(NS(C)(=O)=O)cc(C#N)cc21` (racemic) were, in that order, 1050 nM and 22000 nM.
For the molecule `CCC(CC)(c1ccc(Cl)cc1)n1ncc2c(NS(C)(=O)=O)cccc21`, inhibition in series [4] was half-maximal at 114 nM (IC50).
`CC[C@](CO)(c1ccc(Cl)cc1)n1ncc2c(NS(C)(=O)=O)cccc21` showed a half-life in series [18] of 1.9 h. The IC50 in series [2] was found to be 870 nM; in series [4], 64 nM. The molecule further had a clearance in series [19] of 27 mL/min/kg. This molecule gave a bioavailability in series [20] of 59%. In series [5], the Ratio IC50 was 29.
